Reference: ChEMBL document CHEMBL5247606, “Advances of targeting the YAP/TAZ-TEAD complex in the hippo pathway for the treatment of cancers” (Eur J Med Chem, 2022)

Tests used:
[1] = target: T1, Serine/threonine-protein kinase LATS1 (Homo sapiens) (UniProt O95835); assay: Inhibition of LATS1 (unknown origin) phosporylation relative to control; details: dose 10.0 µM
T1 sequence (whole entry): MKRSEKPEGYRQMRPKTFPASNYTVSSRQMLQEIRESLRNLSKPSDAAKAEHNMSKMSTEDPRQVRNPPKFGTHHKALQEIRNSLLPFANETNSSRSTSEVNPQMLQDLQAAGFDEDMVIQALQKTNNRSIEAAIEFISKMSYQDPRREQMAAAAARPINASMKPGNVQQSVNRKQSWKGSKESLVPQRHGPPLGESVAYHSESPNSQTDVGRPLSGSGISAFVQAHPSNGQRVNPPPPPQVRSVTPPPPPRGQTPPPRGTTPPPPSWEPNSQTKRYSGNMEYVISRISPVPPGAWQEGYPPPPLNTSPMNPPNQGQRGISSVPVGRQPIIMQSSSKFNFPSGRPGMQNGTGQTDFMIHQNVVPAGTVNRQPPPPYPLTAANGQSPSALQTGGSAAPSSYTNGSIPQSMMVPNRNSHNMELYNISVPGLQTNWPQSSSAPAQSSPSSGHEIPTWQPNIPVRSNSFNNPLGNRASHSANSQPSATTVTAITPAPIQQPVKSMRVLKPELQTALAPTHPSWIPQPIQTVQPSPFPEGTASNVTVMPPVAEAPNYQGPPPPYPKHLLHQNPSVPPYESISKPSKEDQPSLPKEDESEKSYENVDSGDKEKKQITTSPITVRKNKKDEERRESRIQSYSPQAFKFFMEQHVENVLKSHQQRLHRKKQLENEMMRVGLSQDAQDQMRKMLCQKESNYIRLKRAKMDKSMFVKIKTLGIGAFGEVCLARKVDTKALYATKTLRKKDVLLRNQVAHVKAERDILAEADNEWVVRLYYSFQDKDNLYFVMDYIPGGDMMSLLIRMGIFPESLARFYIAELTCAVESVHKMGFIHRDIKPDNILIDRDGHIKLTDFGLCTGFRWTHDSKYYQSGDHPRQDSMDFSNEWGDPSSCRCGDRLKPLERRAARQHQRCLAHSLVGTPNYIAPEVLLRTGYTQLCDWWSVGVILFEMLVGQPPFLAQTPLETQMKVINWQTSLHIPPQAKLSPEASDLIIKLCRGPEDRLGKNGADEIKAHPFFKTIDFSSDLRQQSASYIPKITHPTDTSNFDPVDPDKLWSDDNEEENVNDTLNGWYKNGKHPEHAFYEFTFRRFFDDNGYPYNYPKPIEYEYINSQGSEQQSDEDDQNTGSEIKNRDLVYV

[2] = target: Transcriptional coactivator YAP1 (Homo sapiens) (UniProt P46937); assay: Inhibition of YAP (unknown origin) phosporylation relative to control; details: concentration not given here
Transcriptional coactivator YAP1 (Homo sapiens), sequence (P46937 whole entry): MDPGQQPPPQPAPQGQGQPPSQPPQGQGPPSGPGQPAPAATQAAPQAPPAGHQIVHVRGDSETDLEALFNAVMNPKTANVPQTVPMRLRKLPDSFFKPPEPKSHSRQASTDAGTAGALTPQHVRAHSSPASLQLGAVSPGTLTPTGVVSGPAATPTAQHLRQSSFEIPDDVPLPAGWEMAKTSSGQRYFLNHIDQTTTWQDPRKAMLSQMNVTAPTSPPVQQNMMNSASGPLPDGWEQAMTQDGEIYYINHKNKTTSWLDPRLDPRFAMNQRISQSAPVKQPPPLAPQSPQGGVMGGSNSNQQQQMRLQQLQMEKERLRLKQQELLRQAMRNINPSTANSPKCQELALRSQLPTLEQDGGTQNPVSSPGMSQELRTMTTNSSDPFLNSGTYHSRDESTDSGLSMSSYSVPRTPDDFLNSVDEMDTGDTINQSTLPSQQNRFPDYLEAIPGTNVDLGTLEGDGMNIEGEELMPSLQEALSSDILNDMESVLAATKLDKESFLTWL

CCOc1cc2ncc(C#N)c(Nc3ccc(OCc4ccccn4)c(Cl)c3)c2cc1NC(=O)/C=C/CN(C)C
inhibition [1]: < 30%
inhibition [2]: < 30%
